Test results as given in US20140066362A1, “METHOD FOR TREATING INFECTIONS BY TARGETING MICROBIAL H2S-PRODUCING ENZYMES” (NEW YORK UNIVERSITY, priority 2011, published 2014).

Columns and labels:
[1] = test system: pBR322 plasmid DNA; assay: Electrophoresis assay of DNA damage in vitro (Fenton reaction); details: NaHS:Fe3+ 6:1, with Cys and H2O2, pH 8
[2] = test system: recA′::gfp E. coli; assay type: cell-based; details: NaHS 200 μM, aspartate-treated cells
[3] = test system: Wt E. coli cells; assay type: cell-based; details: then H2O2 2 mM for 10 min
[4] = test system: CBS/CSE; assay type: cell-based, B. anthracis, S. aureus, P. aeruginosa; details: chemical inhibition of CSE (PAG) or CBS (AOAA), 18 hours culture
[5] = test system: E. coli cells; assay type: cell-based; details: pretreatment for 3 min, 2,2′-dipyridyl 0.05 mM or thiourea 15 mM, then Gm
[6] = test system: 3MST-deficient E. coli cells; assay type: cell-based; details: diamide 25 μM, gentamicin 50 μg/ml for 5 min
[7] = test system: E. faecalis ATCC29212; assay: MIC of antibiotics with or without PAG/AOAA; assay type: cell-based
Method: Bacterial cultures were prepared at initial inoculums of ˜5×10^5 CFU/ml, and aliquots of 190 μl per well were dispensed. Ten μl of the indicated antibiotic solutions were added to each well. The starting concentration for each antibiotic solution was 2×MIC, with serial ½ dilutions. Two sets of dilutions were prepared, and 0.1 mM AOAA was added to one set. The plates were kept at 37° C. and 85% humidity for 20 hours.
(§1) E. faecalis (ATCC 29212) cultures were prepared at initial inoculums of ˜5×10^5 CFU/ml in Mueller-Hinton II Broth (cation-adjusted). Aliquots of 190 μl were dispensed to each well of a fresh set of plates, and 10 μl of an antibiotic solution (levofloxacin, meropenem, gentamicin, piperacillin, linezolid, cefepime, daptomycin, vancomycin, or chloramphemicol) were transferred to the corresponding wells in each bacterial plate (FIG. 13). For each antibiotic, the starting concentration was 2×MIC (minimum inhibitory concentration) with serial ½ dilutions. Two sets of dilutions were prepared, and to one of them 0.1 mM AOAA was added. The resulting plates were kept at 37° C. and 85% humidity for 20 hours. All nine antibiotics tested were potentiated by AOAA, with respective MICs dropped from 8-fold to 32-fold (FIG. 13).
(§2) Minimum inhibitory concentration (MIC) determination was conducted as described in Example 7, above. To assess antibiotic potentiation by AOAA and PAG, MIC was determined for nine antibiotics (levofloxacin, meropenem, gentamicin, piperacillin, linezolid, cefepime, daptomycin, vancomycin, and chloramphemicol) and four bacterial strains (E. faecium (A2373), E. faecalis ([…]), S. pneumoniae (ATCC 49619), and P. aeruginosa (PAO1)) in the presence of antibiotic alone, 1 mM PAG, 0.1 mM AOAA, or 0.5 mM PAG+0.05 mM AOAA. The smaller the MIC value, the stronger the effect of antibiotic potentiation.

[8] = test system: E. coli ΔsseA (3MST-deficient) strain; assay type: cell-based; details: Table 1; relative values of growth inhibition (negative numbers), ΔsseA vs wt E. coli
[9] = test system: E. faecium A2373; assay: MIC of antibiotics with or without PAG/AOAA; assay type: cell-based
Method: as §1, §2

[10] = test system: P. aeruginosa PAO1; assay: MIC of antibiotics with or without PAG/AOAA; assay type: cell-based
Method: as §2

[11] = test system: S. pneumoniae ATCC49619; assay: MIC of antibiotics with or without PAG/AOAA; assay type: cell-based
Method: as §2

[12] = in the presence of 0.5 mM PAG + 0.05 mM AOAA

[Na+].[SH-] [NaHS]
Inhibition of Fenton-mediated DNA damage [1]: completely inhibited DNA damage
Effect on hyper-induction of SOS by gentamicin [2]: completely suppressed the hyper-induction of SOS by gentamicin
Increase in resistance to peroxide ([3]; NaHS 200 μM pretreatment for 1 min): > 20 times

NOCC(=O)O [AOAA, amino-oxyacetate]
Effect on H2S production (PbS staining) [4]: greatly decreased or eliminated PbS staining

c1ccc(-c2ccccn2)nc1 [2,2′-dipyridyl]
Effect on toxicity of Gm [5]: substantially decreased the toxicity of Gm
Protection against peroxide (in words) ([3]; dipyridyl 0.5 mM pretreatment for 1 min): protected them rapidly against peroxide

C#CCC(N)C(=O)O (racemic) [PAG, D,L-propargylglycine]
Effect on H2S production (PbS staining) [4]: greatly decreased or eliminated PbS staining

CN(C)C(=O)/N=N/C(=O)N(C)C [diamide]
Protection against Gm [6]: protected 3MST mutant cells against Gm

O=C(N[C@H](CO)[C@H](O)c1ccc([N+](=O)[O-])cc1)C(Cl)Cl [Chloramphenicol]
MIC ([7]; Enterococcus faecalis, ATCC29212, antibiotic alone, read-out: Minimum inhibitory concentration): 8 µg/mL
Minimum inhibitory concentration ([7]; in the presence of 0.1 mM AOAA): 0.5 µg/mL
Minimum inhibitory concentration [7, 12]: 8 µg/mL
Minimum inhibitory concentration ([7]; in the presence of 1 mM PAG): 8 µg/mL
ΔsseA inhibition of growth [8]: −136
MIC ([9]; Enterococcus faecium, A2373, antibiotic alone, read-out: Minimum inhibitory concentration): 8 µg/mL
Minimum inhibitory concentration ([9]; in the presence of 0.1 mM AOAA): 2 µg/mL
Minimum inhibitory concentration [9, 12]: 8 µg/mL
Minimum inhibitory concentration ([9]; in the presence of 1 mM PAG): 8 µg/mL
MIC ([10]; Pseudomonas aeruginosa, PAO1, antibiotic alone, read-out: Minimum inhibitory concentration): 64 µg/mL
Minimum inhibitory concentration ([10]; in the presence of 0.1 mM AOAA): 64 µg/mL
Minimum inhibitory concentration [10, 12]: 64 µg/mL
Minimum inhibitory concentration ([10]; in the presence of 1 mM PAG): 64 µg/mL
MIC ([11]; Streptococcus pneumoniae, ATCC49619, antibiotic alone, read-out: Minimum inhibitory concentration): 8 µg/mL
Minimum inhibitory concentration ([11]; in the presence of 0.1 mM AOAA): 4 µg/mL
Minimum inhibitory concentration [11, 12]: 4 µg/mL
Minimum inhibitory concentration ([11]; in the presence of 1 mM PAG): 4 µg/mL
